Assay results taken from patent US6664273B2, “Piperidine based MCH antagonists for treatment of obesity and CNS disorders” (Schering Corporation, priority 2001, dated 2003).

Target: T1, MCH receptor (Homo sapiens, UniProt Q99705)
T1 construct: expressed in transfected cells; host or cells: CHO cells
Test: MCH Receptor Binding Assay
Conditions: [125I]-MCH, SPA, membranes from CHO cells expressing the MCH receptor
Protocol: Membranes from CHO cells expressing the MCH receptor were prepared by lysing cells with 5 mM HEPES for 15 min at 4C. Cell lysates were centrifuged ([…], 15 min) and the pellet was re-suspended in 5 mM HEPES. For each 96-well plate (Microlite, Dynex Technologies), 1 mg of cell membranes were incubated with 10 mg of wheat germ agglutinin SPA beads (Amersham) for 5 min at 4 C in a volume of 10 ml of binding buffer (25 mM HEPES, 10 mM MGCl2, 10 mM NaCl, 5 mM MnCl2, 0.1% BSA). The membrane/bead mixture was centrifuged (1500×g, 3.5 min), the supernatant was aspirated, and the pellet was re-suspended in 10 ml binding buffer. The centrifugation, aspiration and re-suspension were then repeated. The membrane/bead mixture (100 μl) was then added to 96-well plates containing 50 μl of 500 pM [^125I]-MCH (NEN) and […] of the appropriate concentration of compound (4× the desired final concentration). Nonspecific binding was determined by including 1 μM MCH in the binding reaction. The binding reaction was incubated at room temperature for 2 h. Plates were then analyzed in a TOPCOUNT microplate scintillation counter (Packard). Data was analyzed and Ki values were determined using GraphPad Prism.

T1 sequence (Q99705 whole entry): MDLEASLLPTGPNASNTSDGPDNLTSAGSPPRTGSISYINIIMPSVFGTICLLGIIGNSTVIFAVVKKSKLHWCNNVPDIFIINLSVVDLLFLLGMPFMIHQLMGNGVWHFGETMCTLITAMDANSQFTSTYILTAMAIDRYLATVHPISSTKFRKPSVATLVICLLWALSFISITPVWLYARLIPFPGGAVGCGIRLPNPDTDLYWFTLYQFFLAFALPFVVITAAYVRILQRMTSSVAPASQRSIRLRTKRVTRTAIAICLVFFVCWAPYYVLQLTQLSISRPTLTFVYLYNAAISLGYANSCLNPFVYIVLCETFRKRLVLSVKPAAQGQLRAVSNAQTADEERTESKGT

SMILES	Ki
N#Cc1cccc(-c2ccc(C3(NCC(=O)Nc4cc(Cl)cc(Cl)c4)CCN(C4CCCC4)CC3)cc2)c1	3.2 nM
N#Cc1cccc(-c2ccc(C3(NCC(=O)Nc4ccc(F)c(C(F)(F)F)c4)CCN(C4CCCC4)CC3)cc2)c1	16 nM
CN(CC(=O)Nc1ccc(F)c(C(F)(F)F)c1)C1(c2ccc(-c3cccc(C#N)c3)cc2)CCN(C2CCCC2)CC1	18 nM
N#Cc1cccc(-c2ccc(C3(NCC(=O)Nc4ccc(F)c(Cl)c4)CCN(C4CCCC4)CC3)cc2)c1	2.6 nM
CN(CC(=O)Nc1ccc(F)c(Cl)c1)C1(c2ccc(-c3cccc(C#N)c3)cc2)CCN(C2CCCC2)CC1	4.2 nM
N#Cc1cccc(-c2ccc(C3(NCC(=O)Nc4ccc(Cl)c(C(F)(F)F)c4)CCN(C4CCCC4)CC3)cc2)c1	23 nM
CN(CC(=O)Nc1ccc(Cl)c(C(F)(F)F)c1)C1(c2ccc(-c3cccc(C#N)c3)cc2)CCN(C2CCCC2)CC1	16 nM
N#Cc1cccc(-c2ccc(C3(NCC(=O)Nc4cc(F)cc(F)c4)CCN(C4CCCC4)CC3)cc2)c1	2.5 nM
CN(CC(=O)Nc1cc(F)cc(F)c1)C1(c2ccc(-c3cccc(C#N)c3)cc2)CCN(C2CCCC2)CC1	6.2 nM
N#Cc1cccc(-c2ccc(C3(N(CC(=O)Nc4cc(F)cc(F)c4)CC4CC4)CCN(C4CCCC4)CC3)cc2)c1	69 nM
N#Cc1cccc(-c2ccc(C3(OCC(=O)Nc4cc(Cl)cc(Cl)c4)CCNCC3)cc2)c1	3.2 nM
CN1CCC(OCC(=O)Nc2cc(Cl)cc(Cl)c2)(c2ccc(-c3cccc(C#N)c3)cc2)CC1	4 nM
N#Cc1cccc(-c2ccc(C3(OCC(=O)Nc4cc(Cl)cc(Cl)c4)CCN(CC4CC4)CC3)cc2)c1	1.8 nM
N#Cc1cccc(-c2ccc(C3(OCC(=O)Nc4cc(Cl)cc(Cl)c4)CCN(C4CCCC4)CC3)cc2)c1	2.2 nM
CCN(CC(=O)Nc1ccc(F)c(Cl)c1)C1(c2ccc(-c3cccc(C#N)c3)cc2)CCN(C2CCCC2)CC1	10.6 nM
N#Cc1cccc(-c2ccc(C3(OCC(=O)Nc4ccc(F)c(Cl)c4)CCN(CC4CC4)CC3)cc2)c1	2 nM
N#Cc1cccc(-c2ccc(C3(OCC(=O)Nc4ccc(Cl)c(C(F)(F)F)c4)CCN(CC4CC4)CC3)cc2)c1	23 nM
O=C(CNC1(c2ccc(-c3cccc(OC(F)(F)F)c3)cc2)CCN(C2CCCC2)CC1)Nc1ccc(F)c(Cl)c1	76 nM
CC(C)(C)OC(=O)N1CCC(NCC(=O)Nc2ccc(F)c(Cl)c2)(c2ccc(-c3cccc(C#N)c3)cc2)CC1	56 nM
N#Cc1cccc(-c2ccc(C3(NCC(=O)Nc4ccc(F)c(Cl)c4)CCNCC3)cc2)c1	3 nM
CN(CC(=O)Nc1ccc(F)c(Cl)c1)C1(c2ccc(-c3cccc(C#N)c3)cc2)CCNCC1	4.7 nM
CC(=O)N1CCC(c2ccc(-c3cccc(C#N)c3)cc2)(N(C)CC(=O)Nc2ccc(F)c(Cl)c2)CC1	25 nM
CN(CC(=O)Nc1ccc(F)c(Cl)c1)C1(c2ccc(-c3cccc(C#N)c3)cc2)CCN(S(C)(=O)=O)CC1	70 nM
O=C(CNC1(c2ccc(-c3cccc(F)c3)cc2)CCN(C2CCCC2)CC1)Nc1ccc(F)c(Cl)c1	99 nM
O=C(CNC1(c2ccc(-c3cccc(Cl)c3)cc2)CCN(C2CCCC2)CC1)Nc1ccc(F)c(Cl)c1	63 nM

SMILES	Ki
N#Cc1cccc(-c2ccc(C3(OCC(=O)Nc4cc(Cl)cc(Cl)c4)CCN(C4CCCCC4)CC3)cc2)c1	19 nM
CC1CCC(N2CCC(OCC(=O)Nc3cc(Cl)cc(Cl)c3)(c3ccc(-c4cccc(C#N)c4)cc3)CC2)C1 (stereo not shown)	11 nM
N#Cc1cccc(-c2ccc(C3(OCC(=O)Nc4cc(Cl)cc(Cl)c4)CCN(C4CCOCC4)CC3)cc2)c1	9 nM
N#Cc1cccc(-c2ccc(C3(OCC(=O)Nc4cc(Cl)cc(Cl)c4)CCN(C4CCSC4)CC3)cc2)c1 (stereo not shown)	19 nM
CC1CCC(C)CC(N2CCC(OCC(=O)Nc3cc(Cl)cc(Cl)c3)(c3ccc(-c4cccc(C#N)c4)cc3)CC2)C1 (stereo not shown)	20 nM
N#Cc1cccc(-c2ccc(C3(OCC(=O)Nc4cc(Cl)cc(Cl)c4)CCN(C4Cc5ccccc5C4)CC3)cc2)c1	62 nM
COC1CCCC(CN2CCC(OCC(=O)Nc3cc(Cl)cc(Cl)c3)(c3ccc(-c4cccc(C#N)c4)cc3)CC2)O1 (stereo not shown)	20 nM
N#Cc1cccc(-c2ccc(C3(OCC(=O)Nc4cc(Cl)cc(Cl)c4)CCN(C4C5CCCC4CCC5)CC3)cc2)c1 (stereo not shown)	48 nM
CC(C)C1CCC(N2CCC(OCC(=O)Nc3cc(Cl)cc(Cl)c3)(c3ccc(-c4cccc(C#N)c4)cc3)CC2)CC1 (stereo not shown)	19 nM
CC(=O)C1CCC(N2CCC(OCC(=O)Nc3cc(Cl)cc(Cl)c3)(c3ccc(-c4cccc(C#N)c4)cc3)CC2)CC1 (stereo not shown)	6 nM
N#Cc1cccc(-c2ccc(C3(OCC(=O)Nc4cc(Cl)cc(Cl)c4)CCN(C4CCC5CCCCC5C4)CC3)cc2)c1 (stereo not shown)	36 nM
N#Cc1cccc(-c2ccc(C3(OCC(=O)Nc4cc(Cl)cc(Cl)c4)CCN(C4CCC(C(F)(F)F)CC4)CC3)cc2)c1 (stereo not shown)	49 nM
N#Cc1cccc(-c2ccc(C3(OCC(=O)Nc4cc(Cl)cc(Cl)c4)CCN(C4CCCC(C(F)(F)F)C4)CC3)cc2)c1 (stereo not shown)	86 nM
N#Cc1cccc(-c2ccc(C3(OCC(=O)Nc4cc(Cl)cc(Cl)c4)CCN(C4CCC(c5ccccc5)CC4)CC3)cc2)c1 (stereo not shown)	95 nM
CC(C)CCN1CCC(OCC(=O)Nc2cc(Cl)cc(Cl)c2)(c2ccc(-c3cccc(C#N)c3)cc2)CC1	30 nM
CCC(C)CN1CCC(OCC(=O)Nc2cc(Cl)cc(Cl)c2)(c2ccc(-c3cccc(C#N)c3)cc2)CC1 (stereo not shown)	21 nM
N#Cc1cccc(-c2ccc(C3(OCC(=O)Nc4cc(Cl)cc(Cl)c4)CCN(Cc4cccs4)CC3)cc2)c1	26 nM
N#Cc1cccc(-c2ccc(C3(OCC(=O)Nc4cc(Cl)cc(Cl)c4)CCN(Cc4ccsc4)CC3)cc2)c1	27 nM
N#Cc1cccc(-c2ccc(C3(OCC(=O)Nc4cc(Cl)cc(Cl)c4)CCN(Cc4cccc(O)c4)CC3)cc2)c1	19 nM
N#Cc1cccc(-c2ccc(C3(OCC(=O)Nc4cc(Cl)cc(Cl)c4)CCN(Cc4ccc(O)cc4)CC3)cc2)c1	20 nM
N#Cc1cccc(-c2ccc(C3(OCC(=O)Nc4cc(Cl)cc(Cl)c4)CCN(CCCc4ccccc4)CC3)cc2)c1	50 nM
CC(CN1CCC(OCC(=O)Nc2cc(Cl)cc(Cl)c2)(c2ccc(-c3cccc(C#N)c3)cc2)CC1)c1ccccc1 (stereo not shown)	42 nM
COc1ccccc1CN1CCC(OCC(=O)Nc2cc(Cl)cc(Cl)c2)(c2ccc(-c3cccc(C#N)c3)cc2)CC1	15 nM
COc1ccc(CN2CCC(OCC(=O)Nc3cc(Cl)cc(Cl)c3)(c3ccc(-c4cccc(C#N)c4)cc3)CC2)cc1	39 nM
CC(CCN1CCC(OCC(=O)Nc2cc(Cl)cc(Cl)c2)(c2ccc(-c3cccc(C#N)c3)cc2)CC1)c1ccccc1 (stereo not shown)	72 nM

SMILES	Ki
O=C(CNC1(c2ccc(-c3cc(Cl)ccc3Cl)cc2)CCN(C2CCCC2)CC1)Nc1ccc(F)c(Cl)c1	52 nM
CN(CC(=O)Nc1ccc(F)c(Cl)c1)C1(c2ccc(-c3cccc(C#N)c3)cc2)CCN(CCO)CC1	10 nM
N#Cc1cccc(-c2ccc(C3(OCC(=O)Nc4ccc(Cl)c(C(F)(F)F)c4)CCN(CCO)CC3)cc2)c1	48 nM
N#Cc1cccc(-c2ccc(C3(OCC(=O)Nc4ccc(Cl)c(C(F)(F)F)c4)CCN(C4CCCC4)CC3)cc2)c1	49 nM
N#Cc1cccc(-c2ccc(C3(OCC(=O)Nc4ccc(F)c(Cl)c4)CCN(CCO)CC3)cc2)c1	8.2 nM
O=Cc1cccc(-c2ccc(C3(NCC(=O)Nc4ccc(F)c(Cl)c4)CCN(C4CCCC4)CC3)cc2)c1	21 nM
O=C(CNC1(c2ccc(-c3cccc(-c4ncc[nH]4)c3)cc2)CCN(C2CCCC2)CC1)Nc1ccc(F)c(Cl)c1	8.3 nM
N#Cc1cccc(-c2ccc(C3(CCC(=O)Nc4cc(Cl)cc(Cl)c4)CCN(C4CCCC4)CC3)cc2)c1	35.5 nM
N#Cc1cccc(-c2ccc(C3(CCC(=O)Nc4ccc(F)c(Cl)c4)CCN(C4CCCC4)CC3)cc2)c1	26 nM
N#Cc1cccc(-c2ccc(C3(CCC(=O)Nc4cc(F)cc(F)c4)CCN(C4CCCC4)CC3)cc2)c1	36 nM
N#Cc1cccc(-c2ccc(C3(CCC(=O)Nc4ccc(F)c(F)c4)CCN(C4CCCC4)CC3)cc2)c1	15 nM
CC(C)(C)OC(=O)N1CCC(CCC(=O)Nc2ccc(F)c(F)c2)(c2ccc(-c3cccc(C#N)c3)cc2)CC1	51 nM
N#Cc1cccc(-c2ccc(C3(CCC(=O)Nc4ccc(F)c(F)c4)CCNCC3)cc2)c1	25 nM
N#Cc1cccc(-c2ccc(C3(CCC(=O)Nc4ccc(F)c(F)c4)CCN(CC4CC4)CC3)cc2)c1	8 nM
N#Cc1cccc(-c2ccc(C3(CCC(=O)Nc4cc(Cl)cc(Cl)c4)CCN(CC4CC4)CC3)cc2)c1	27 nM
N#Cc1cccc(-c2ccc(C3(CCC(=O)Nc4ccc(F)c(F)c4)CCN(C4CCC4)CC3)cc2)c1	19 nM
N#Cc1cccc(-c2ccc(C3(CCC(=O)Nc4ccc(F)c(Cl)c4)CCN(CC4CC4)CC3)cc2)c1	34 nM
N#Cc1cccc(-c2ccc(C3(CCC(=O)Nc4cc(F)cc(F)c4)CCN(CC4CC4)CC3)cc2)c1	31 nM
N#Cc1cccc(-c2ccc(C3(CCC(=O)Nc4cc(F)cc(C(F)(F)F)c4)CCN(CC4CC4)CC3)cc2)c1	49 nM
CC(=O)N1CCC(CCC(=O)Nc2ccc(F)c(F)c2)(c2ccc(-c3cccc(C#N)c3)cc2)CC1	61 nM
CCN(CC)C(=O)N1CCC(CCC(=O)Nc2ccc(F)c(F)c2)(c2ccc(-c3cccc(C#N)c3)cc2)CC1	45 nM
N#Cc1cccc(-c2ccc(C3(CCC(=O)Nc4ccc(Cl)c(C(F)(F)F)c4)CCN(CC4CC4)CC3)cc2)c1	80 nM
N#Cc1cccc(-c2ccc(C3(CCC(=O)Nc4cccc(OC(F)(F)F)c4)CCN(CC4CC4)CC3)cc2)c1	69 nM
